Assays:
[1] = in vivo; details: mouse
Protocol: NPs from Example 4 were prepared on a larger scale for MTD studies.

[2] = Blood glucose after acute treatment, non-tumor bearing SCID mice; format: in vivo; details: FIG. 10
[3] = format: in vivo; details: BT-474 xenografts in SCID mice, FIG. 15

## NC1(c2ccc(-c3nc4ccn5c(=O)[nH]nc5c4cc3-c3ccccc3)cc2)CCC1 [COMPOUND A, 8-[4-(1-amino-cyclobutyl)phenyl]-9-phenyl-2H-[1,2,4]-triazolo-[3,4-f][1,6]-naphthyridin-3-one]
[1]
  MTD: 480 mg/kg
[2]
  hyperglycemia following acute treatment: display hyperglycemia
[3]
  MTD dosing / toxicity (percent survival): exhibited toxicity
